“And” between values parts separate entries of the source, which are not always exact repeats. Equal entries are not always repeated. Where two headings read alike, the source gives them in different places.
Tests used:
[1] = test system: inflammatory and neuropathic pain; settings: formalin test and spinal nerve ligation; cited from earlier work
[2] = human, in vivo; cited from earlier work
[3] = cited from earlier work
[4] = test system: subjects with osteoarthritis of the knee; experiment: Osteoarthritis of the knee safety study (Phase 1): intra-articular purified capsaicin after lignocaine; safety, tolerability, VAS pain; type: in vivo, human
Procedure: The primary objective of the study was to evaluate the safety and tolerability of intra-articular capsaicin, when co-administered with intra-articular local anesthetic, compared to placebo, in subjects with end-stage osteoarthritis of the knee, already scheduled to receive knee replacements.
The study was designed to include 16 evaluation subjects. […] Sixteen subjects completed the study.
Patients were treated randomly and in double-blind fashion in four treatment groups, with each group having a progressively longer interval between the intra-articular administration of study medication and subsequent total knee replacement (2, 4, 7, and 14 days). […] Gross and microscopic pathology analysis was completed for each treatment group before the next treatment group was treated.
(§1) Each subject had 3 study visits: a Screening Day (Day −7 to −1), the Treatment Day (Day 0), and a Post-Treatment Day (scheduled for Day +2, +4, +7, or +14). On the Treatment Day the subject was randomized, pre-treatment evaluation was performed. The patients were brought into the procedure room, and a VAS pain score was taken (0 mm—no pain, 100 mm—extreme pain). Once the patient had marked his or her pain on the card, he/she was prepped for knee cannulation. Once the cannula was placed, the patient received by intra-articular infiltration, 3 mg/kg (maximum dose of 200 mg) of 2% lignocaine into the knee scheduled to be replaced.
VAS pain scores as well as verbal reports were taken immediately following administration, as well as prior to knee replacement surgery. No subjects discontinued from the study due to adverse events.
On the Post-Treatment Day, study evaluation was performed followed by the scheduled knee replacement, with intra-operative bone and soft tissue biopsies performed for subsequent examination. […] This therefore left the 3 placebo and 9 active patients from the 4 day, 7 day, and 14 day cohorts.

[5] = test system: subjects with osteoarthritis of the knee; experiment: Osteoarthritis of the knee efficacy study (Phase 2): NRS pain score; type: in vivo, human; settings: 1000 μg intra-articular, three weeks following administration, P=0.03
Procedure: as §1, with “The study is designed to include 12 evaluation subjects (Patients suffering a defined pain: >40 mm on VAS). […] Patients are treated randomly and in double-blind fashion. Gross and microscopic pathology analysis are completed for each treatment group. Each” for “Each”, “has” for “had”, “is” for “was”, “patient is” for “patients were”, “marks” for “had marked”, “receives,” for “received”
VAS pain scores as well as verbal reports are taken immediately following administration, as well as prior to knee replacement surgery. On the Post-Treatment Day, a study evaluation is performed followed by the scheduled knee replacement, with intra-operative bone and soft tissue biopsies performed for subsequent examination. […]
Changes in NRS (Numerical Rating Scale) pain scores were measured at three weeks following administration.

[6] = test system: radiation induced hyperalgesia; settings: systemic, cited from earlier work
[7] = test system: subjects undergoing transpositional osteotomy (bunionectomy); experiment: Bunionectomy efficacy study (Phase II): capsaicin dripped into the wound before closure; VAS pain and rescue medication; type: in vivo, human; settings: for VAS pain score at the operation site (mean +/− SEM): 1000 μg, n = 11
Procedure: The primary efficacy endpoint was the proportion of subjects in each treatment group requiring opioid analgesia in the first 24 hours post-operatively. The proportions were compared amongst treatment groups using the Cochran-Haenszel test. Secondary efficacy end points included: i) proportion of subjects in each treatment group requiring opioid analgesia in the first 36 hour period post-operatively (Similarly, the proportions were compared amongst treatment groups using the Cochran-Haenszel test); ii) proportion of subjects in each treatment group requiring opioid analgesia in the 10 day period post-operatively (Similarly, the proportions were compared amongst treatment groups using the Cochran-Haenszel test); iii) time to first usage of opioid analgesia in each treatment group (a survival analysis approach will be used: the product-limit (Kaplan-Meier) method will be applied to time to first usage of opioid analgesia. The median time to first usage of opioid analgesia will be estimated in both treatment groups. Pairwise comparisons will be performed to test for equality of the survival curves between the 2 treatment groups using both the log-rank and the Wilcoxon test); iv) total usage of analgesia in each treatment group (the total usage of analgesia will be compared by an analysis of variance with treatment and center as independent variables. A pairwise comparison will be performed between the treatment groups); and v) VAS assessment of pain at the site of operation in each treatment group (The VAS score at each time point will be compared by an analysis of variance with treatment and center as independent variables. A pairwise comparison will be performed between the treatment groups). […] The efficacy analysis was performed on the data obtained ten days postoperatively. The safety analysis was performed based on the safety data for the entire study, including the 6 week and 12 week follow-up periods. The blind was broken at the time the efficacy analysis was performed. However, the individual treatment assignment was available to the statistical analysis group only. All other personnel involved in the study, including the Investigator, study monitor and proprietary staff, remained blinded until the entire study was completed.
The study was designed to include 40 evaluation subjects. […] Each subject had six (6) study visits: a Screening Day (Day −28 to −1), an Operation Day (Day 0), and four (4) Follow-up visits (scheduled for Days 3, 10 and weeks 6 and 12).
On Operation Day (Day 0) the following was performed: a) Pre-operation: Prior to the initiation of an ankle block, inclusion/exclusion criteria assessment was performed. […] Immediately prior to wound closure, the Investigator slowly dripped the study medication (4 mL) from a syringe into the wound, ensuring even tissue exposure. The wound was then be closed according to normal practices and procedures.
In the 24 hours following administration of study medication, vital signs (supine pulse rate and blood pressure) were recorded at 1, 2, 4 and 24 hours post administration. VAS assessment of pain at the operation site was performed at 1, 4, 8, 12 and 24 hours post administration. In those instances where VAS measurements coincide with blood sampling procedures, the VAS assessment was performed first. […] The quantity of each blood sample was 10 mL. Laboratory safety assessments, e.g., haematology, biochemistry, urinalysis were performed at 24 hours post administration. Adverse events were spontaneously reported by the subject and recorded. Rescue analgesia medication was provided to the subject if required (initially diclofenac 50 mg, repeated at 8 hourly intervals if necessary). When diclofenac was judged by the Investigator to provide inadequate pain relief then the subject was provided with alfentanil 1 mg, repeated at 6 hourly intervals, if necessary.

clinical = experiment: clinical; design: species or system human; settings: in vivo
Procedure: The pharmacokinetic parameters of Cmax, Tmax, AUC(0−tlast) and t½ were evaluated.

CN(C)CCC=C1c2ccccc2CCc2ccccc21 [amitriptyline]
action when administered locally [1]: produced local antinociceptive actions

CNCCCN1c2ccccc2CCc2ccccc21 [desipramine]
action when administered locally [1]: produced local antinociceptive actions

CN1C(C(=O)Nc2ccccn2)=C(O)c2ccccc2S1(=O)=O [piroxicam]
patients experiencing gross bleeding and ulceration [2]: up to 4%

COc1cc(CNC(=O)CCCC/C=C/C(C)C)ccc1O [purified capsaicin, N-(4-hydroxy-3-methoxybenzyl)-8-methylnon-trans-6-enamide]
solubility in alcohol, ether, benzene and chloroform [3]: freely soluble | solubility in water [3]: practically insoluble | incidence of post injection hyperalgesia ([4]; 10 μg dose group): no subjects | patients reporting transient burning pain immediately following instillation ([4]; 10 μg intra-articular): 0 of 4 | duration of post-administration (hyper)algesic pain, per subject ([4]; 100 μg dose group): 9 min | incidence of post injection hyperalgesia ([4]; 100 μg dose group): 1 subject | subjects requiring intervention for post-injection (hyper)algesia ([4]; 100 μg dose group): 1 subject | patients reporting transient burning pain immediately following instillation ([4]; 100 μg intra-articular): 1 of 4 | duration of post-administration (hyper)algesic pain, per subject ([4]; 300 μg dose group): 17 minutes and 25 minutes (2×) and 42 minutes | incidence of post injection hyperalgesia ([4]; 300 μg dose group): 4 subjects | subjects requiring intervention for post-injection (hyper)algesia ([4]; 300 μg dose group): 4 subjects | patients reporting transient burning pain immediately following instillation ([4]; 300 μg intra-articular): 4 of 4 | reduction of VAS pain score, before administration vs day of surgery ([4]; 9 active patients of the 4, 7 and 14 day cohorts, doses 10-300 μg pooled): 62±14% | effects on laboratory safety parameters or vital signs ([4]; 10-300 μg intra-articular): no treatment related effects | effects on soft tissue, cartilage or bone upon histopathological examination ([4]; 10-300 μg intra-articular): no treatment related effects | erythema, edema or hemorrhage at the site of injection ([4]; 10-300 μg intra-articular): no treatment related signs | gross and microscopic pathology ([4]; 10-300 μg intra-articular): normal | leakage of study drug from the joint space ([4]; 10-300 μg intra-articular): low leakage | systemic side effects ([4]; 10-300 μg intra-articular): No treatment related systemic side effects | median decrease from baseline to pre-operative time point in VAS for pain at the target knee, vs placebo ([4]; all 3 capsaicin dose groups): substantially greater | tolerability ([4]; all dose levels (10, 100, 300 μg)): well tolerated | onset of post-administration (hyper)algesia after administration ([4]; all episodes, 100 and 300 μg): ≤ 5 min | effect on proprioception at the injected knee ([4]; any dose group, any time point): no discernable effect | indication of efficacy on VAS pain ([4]; any of the dose levels (10, 100, 300 μg)): No clear treatment related indication of efficacy | final NRS (Numerical Rating Scale) pain score [5]: 3.97 | effect on radiation induced hyperalgesia ([6]; final doses of 25 mg/kg or less, prior to ultra violet radiation): prevented radiation induced hyperalgesia | effect on pain threshold ([6]; final doses of 25 mg/kg or less): did not elevate the pain threshold above normal range | effect on pain threshold ([6]; final doses of 50 mg/kg or greater): pain threshold elevated | time at which a subject required rescue, per subject ([7]; 1000 μg prior to wound closure): 1 h and 4 h and 5 h and 8 h and 12 h | study subjects requiring rescue ([7]; 1000 μg prior to wound closure, 72 hours, n=11): 45% | subjects that did not rescue in 72 hours ([7]; 1000 μg prior to wound closure, n=11): 6 subjects | VAS pain score at the operation site (mean +/− SEM) ([7]; 1 hr): 11.1 +/− 7.3 | VAS pain score at the operation site (mean +/− SEM) ([7]; 8 hr): 5.5 +/− 2.3 | VAS pain score at the operation site (mean +/− SEM) ([7]; 12 hr): 8.2 +/− 3.8 | VAS pain score at the operation site (mean +/− SEM) ([7]; 24 hr): 1.9 +/− 1.0 | VAS pain score at the operation site (mean +/− SEM) ([7]; 48 hr): 5.9 +/− 2.5 | VAS pain score at the operation site (mean +/− SEM) ([7]; 72 hr): 10.6 +/− 3.5 | Tmax (clinical; human, 300 ug): 30 min | half-life (clinical; human, 300 ug, terminal exponential half life, per subject): 19.6 min | plasma concentrations compared with the 100 μg and 300 μg dose groups (clinical): clearly lower
